Our source for the Activity and IC50 values is ChEMBL document CHEMBL1155139 (Antimicrob Agents Chemother, 2007).

Test [1] has as its system Plasmodium berghei. Kind of test: Antimalarial activity as reduced parasitaemia at day 3 against Plasmodium berghei infected MORO mice (Mus musculus) at 100 mg/kg peroral dose. It counts as functional. Further details: scale not given: the % may be the effect or the level left. As to conditions: route oral.
Test [2] concerns Plasmodium berghei. Kind of test: Antimalarial activity as reduced parasitaemia at day 3 against Plasmodium berghei infected MORO mice (Mus musculus) at 100 mg/kg subcutaneous dose. Details: scale not given: the % may be the effect or the level left. The test is classed as functional.
Test [3] relates to Plasmodium falciparum. Kind of test: Antimalarial activity against Plasmodium falciparum NF54. It counts as functional, organism-based.
Test [4] concerns Plasmodium falciparum. Kind of test: Antimalarial activity against Plasmodium falciparum K1. The test is classed as functional, organism-based.
The test system of test [5] is Plasmodium falciparum. Kind of test: Antimalarial activity against Plasmodium falciparum FcB1. It counts as functional, organism-based. Particulars: FcB1/Columbia.

Values after ≈ are worked out from the molar mass of the structure shown. Some results are limits rather than exact numbers.

In the case of `C[C@@H]1CCCCC12OOC1(CCCC[C@@H]1C)OO2` (stereo partly drawn) [WR-148999], the Activity in the test on Plasmodium berghei [1] came to 99.7%; with Plasmodium berghei [2], 99.99%.
Usually IC50 stands for the point on the concentration scale where inhibition reaches its midpoint. Take `CCCCC1(CCCC)OOC(CCCC)(CCCC)OOC(CCCC)(CCCC)OO1`: the IC50 with Plasmodium falciparum [3] and with Plasmodium falciparum [4] was > 10 µg/mL throughout.
For `C1CCCC2(CC1)OOC1(CCCCCC1)OO2`, the IC50 with Plasmodium falciparum [5] is 0.021 µg/mL (≈ 0.0819 µM); with Plasmodium falciparum [3], 0.011 µg/mL (≈ 0.0429 µM); in the test on Plasmodium falciparum [4], 0.014 µg/mL (≈ 0.0546 µM). In addition, the Activity with Plasmodium berghei [1] is on record as 60%; with Plasmodium berghei [2], 56%.
Turning to `C[C@@H]1CC[C@H]2[C@@H](C)C(=O)O[C@@H]3O[C@@]4(C)CC[C@@H]1[C@]32OO4` [ARTEMISININ], the Activity in the test on Plasmodium berghei [1] was determined as 98%; in the test on Plasmodium berghei [2] it was 99.99%. The compound further yielded an IC50 in the test on Plasmodium falciparum [3] of 0.0034 µg/mL (≈ 0.012 µM).
Consider `CCCC1(CCC)OOC(CCC)(CCC)OO1`, for which the IC50 in the test on Plasmodium falciparum [5] was determined as 0.048 µg/mL (≈ 0.184 µM); in the test with Plasmodium falciparum [3] it was 0.023 µg/mL (≈ 0.0883 µM); in the test on Plasmodium falciparum [4], 0.04 µg/mL (≈ 0.154 µM). The Activity is 21% with Plasmodium berghei [1] and 0% in the test on Plasmodium berghei [2].
Take `CCCCC1(CCCC)OOC(CCCC)(CCCC)OO1`: the Activity amounted to 47% in the test on Plasmodium berghei [1] and 5% in the test with Plasmodium berghei [2]. For the same compound, the IC50 with Plasmodium falciparum [3] was 0.088 µg/mL (≈ 0.278 µM); with Plasmodium falciparum [4], 0.071 µg/mL (≈ 0.224 µM).
On to `C1CCC2(CC1)COC1(CCCCC1)OC2`, for which the IC50 in the test on Plasmodium falciparum [3] and with Plasmodium falciparum [4] was > 10 µg/mL in each case.
